Measured values as given in patent publication US7101988B2, “Polyvalent cation-sensing receptor in Atlantic salmon” (MariCal, Inc., priority 2000, dated 2006).
Positions count from the first letter of the chain named. Like-named read-outs stand apart in the source and are kept apart here. Values belong to the compound of their own block, whether it stands above or below them.

Legend:
[1] = system: olfactory epithelium of freshwater adapted juvenile Atlantic salmon; assay: Extracellular electrical potentials (EEG) from olfactory nerve; assay type: in vivo; conditions: for effect on olfactory epithelium response to mammalian finger rinse: 5 mM Ca2+ or 50 micromolar Gd3+; for effect on olfactory nerve response to 500 micromolar L-alanine: 5 mM Ca2+, 50 micromolar Gd3+ or 250 mM NaCl; for olfactory nerve response to stimulus: 500 micromolar L-alanine, 1 mM Ca2+, 250 mM NaCl, 50 micromolar Gd3+
Excerpt: Physiol. A 127:157–166 (1975), and Hubbard, P C, et al., Olfactory sensitivity to changes in environmental Ca2+ in the marine teleost Sparus Aurata, J. Exp. Biol. 203:3821–3829 (2000). After anaesthetizing the fish, it was placed in V-clamp apparatus where its gills were irrigated continuously with aerated seawater and its nasal lamellae bathed continuously by a stream of distilled water via a tube held in position in the inhalant olfactory opening. The olfactory nerves of the fish were exposed by removal of overlying bony structures. Stimuli were delivered as boluses to the olfactory epithelium via a 3 way valve where 1 cc of water containing the stimulus was rapidly injected into the tube containing a continuously stream of distilled water. […] Using this experimental approach, stable and reproducible recordings could be obtained for up to 6 hr after the initial surgery on the fish.

[2] = system: SKCaR; assay: FURA 2 based assay of SKCaR activation in transfected HEK cells; assay type: cell-based, dogfish shark (Squalus acanthias); conditions: for effect of amino acids on SKCaR's response to Ca2+: 10 mM Phe, 10 mM Ile or AA Mixture, FURA-2; for alteration in SKCaR sensitivity to Ca2+: increasing extracellular NaCl, sucrose as osmolality control
Excerpt: SKCaR cDNA was ligated into the mammalian expression vector PCDNA II and transfected into HEK cells using standard techniques. The presence of SKCaR protein in transfected cells was verified by western blotting. Activation of SKCaR by extracellular Ca2+, Mg2+ or NaCl was quantified using a well characterized FURA 2 based assay where increases in intracellular Ca2+ produced by SKCaR activation are detected using methodology published previously by Bai, M., S. Quinn, S. Trvedi, O. Kifor, S. H. S. Pearce, M. R. Pollack, K. Krapcho, S. C. Hebert and E. M. Brown. Expression and characterization of inactivating and activating mutations in the human Ca2+-sensing receptor. J. Biol. Chem., 32:19537–19545 (1996); and expressed as % normalized intracellular calcium response to receptor activation.
Full length recombinant dogfish (Squalas acanthias) shark kidney calcium receptor (SKCaR) was expressed in human embryonic kidney cells using methods described herein. The ability of SKCaR to respond to individual amino acids as well as various mixtures was quantified using FURA-2 ratio imaging fluorescence.
Baseline extracellular Ca^2+ concentration was 0.5 mM. Aliquots of Ca^2+ were added to produce final extracellular concentrations of 2.5 mM, 5 mM, 7.5 mM, 10 mM and 20 mM Ca^2+ with changes in the fluorescence recorded. Note that increases in cell fluorescence were greater in the presence of 10 mM Phe for extracellular Ca^2+ concentrations less than 10 mM.

[3] = target: T1, HuPCaR (Homo sapiens, UniProt P41180, R227L); conditions: HuPCaR AA #227 altered to Leu; read-out: EC50 Ca2+; cited from earlier work
T1 sequence (P41180 20-1078 R227L): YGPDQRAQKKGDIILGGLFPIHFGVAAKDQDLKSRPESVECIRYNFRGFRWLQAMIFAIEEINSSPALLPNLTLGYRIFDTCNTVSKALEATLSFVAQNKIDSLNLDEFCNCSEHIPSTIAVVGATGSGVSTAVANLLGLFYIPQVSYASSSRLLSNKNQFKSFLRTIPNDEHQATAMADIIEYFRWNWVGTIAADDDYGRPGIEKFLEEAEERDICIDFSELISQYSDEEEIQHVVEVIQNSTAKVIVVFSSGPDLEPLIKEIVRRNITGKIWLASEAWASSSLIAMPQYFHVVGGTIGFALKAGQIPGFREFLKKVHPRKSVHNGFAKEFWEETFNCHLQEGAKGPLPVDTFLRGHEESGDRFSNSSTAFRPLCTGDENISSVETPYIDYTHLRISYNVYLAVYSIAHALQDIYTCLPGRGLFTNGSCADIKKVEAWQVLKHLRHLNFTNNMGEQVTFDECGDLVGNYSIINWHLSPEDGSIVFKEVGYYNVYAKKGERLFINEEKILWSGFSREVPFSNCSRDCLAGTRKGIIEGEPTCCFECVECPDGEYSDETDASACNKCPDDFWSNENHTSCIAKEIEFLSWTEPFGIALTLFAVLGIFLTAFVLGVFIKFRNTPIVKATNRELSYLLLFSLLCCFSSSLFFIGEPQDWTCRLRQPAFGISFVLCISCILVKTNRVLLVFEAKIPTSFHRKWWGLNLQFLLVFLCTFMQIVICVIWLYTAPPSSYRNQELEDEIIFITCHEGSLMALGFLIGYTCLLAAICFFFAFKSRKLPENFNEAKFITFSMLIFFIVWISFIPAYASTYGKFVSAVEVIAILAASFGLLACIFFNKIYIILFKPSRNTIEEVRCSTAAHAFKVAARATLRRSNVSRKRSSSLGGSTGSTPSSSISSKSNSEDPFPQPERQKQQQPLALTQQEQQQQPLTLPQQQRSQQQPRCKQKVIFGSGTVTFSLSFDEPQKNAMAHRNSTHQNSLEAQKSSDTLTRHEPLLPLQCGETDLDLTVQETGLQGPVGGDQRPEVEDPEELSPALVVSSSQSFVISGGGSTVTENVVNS

[4] = target: T2, HuPCaR (Homo sapiens, UniProt P41180); conditions: HuPCaR with Arg at AA #227; read-out: EC50 Ca2+; cited from earlier work
T2 sequence (P41180 20-1078): T1 sequence (P41180 20-1078 R227L) with L208R

[5] = normalized to response to 10 mM Ca2+

Structure (SMILES): [Gd+3] [Gd^3+, gadolinium]
- effect on olfactory epithelium response to mammalian finger rinse [1]: reversibly ablated the response
- effect on olfactory nerve response to 500 micromolar L-alanine [1]: complete loss of the corresponding response
- olfactory nerve response to stimulus [1]: obtained a response
- concentration at which olfactory epithelium responses occur [1, 5]: 1 to 10 µM

Structure (SMILES): CC[C@H](C)[C@H](N)C(=O)O [Ile, L-Isoleucine]
- effect of amino acids on SKCaR's response to Ca2+ [2]: increase SKCaR's response to a given Ca^2+ concentration

- EC50 ([2]; extracellular NaCl 50 mM, read-out: EC50 for Mg2+): < 20 mM
- EC50 ([2]; extracellular NaCl 550 mM, read-out: EC50 for Mg2+): ~80 mM
Structure (SMILES): [Mg+2] [Mg2+, magnesium]
- concentration at which olfactory epithelium responses occur [1, 5]: 10 to 100 µM
- range of extracellular Mg2+ in which SKCaR is activated [2]: 5 to 40 mM

Structure (SMILES): N[C@@H](Cc1ccccc1)C(=O)O [Phe, L-Phenylalanine]
- effect of amino acids on SKCaR's response to Ca2+ [2]: increase SKCaR's response to a given Ca^2+ concentration
- increases in cell fluorescence ([2]; 10 mM, extracellular Ca2+ less than 10 mM): greater

Structure (SMILES): [Ca+2] [Ca2+, calcium]
- effect on olfactory epithelium response to mammalian finger rinse [1]: reversibly ablated the response
- effect on olfactory nerve response to 500 micromolar L-alanine [1]: complete loss of the corresponding response
- olfactory nerve response to stimulus [1]: produce responses in EEG activity
- EC50 ([1]; normalized to response to 10 mM Ca2+, read-out: half maximal excitatory response (EC50)): 0.001 to 0.01 mM
- EC50 [3]: 9.3 mM
- EC50 [4]: 4 mM
- effect of added Ca2+ on sensitivity of SKCaR to Mg2+ ([2]; 3 mM Ca2+ added, as a function of extracellular NaCl): increases the sensitivity of SKCaR to Mg2+
- EC50 ([2]; depending on the extracellular concentration of NaCl, read-out: half maximal activation of SKCaR by extracellular Ca2+): 1 to 15 mM
- EC50 ([2]; extracellular NaCl 50 mM, read-out: EC50 for Ca2+): < 5 mM
- EC50 ([2]; extracellular NaCl 550 mM, read-out: EC50 for Ca2+): ~18 mM

Structure (SMILES): OC[C@H]1O[C@@](CO)(O[C@H]2O[C@H](CO)[C@@H](O)[C@H](O)[C@H]2O)[C@@H](O)[C@@H]1O [sucrose]
- alteration in SKCaR sensitivity to Ca2+ [2]: not observed

Structure (SMILES): C[C@H](N)C(=O)O [L-alanine]
- duration of olfactory nerve response ([1]; 500 micromolar): approximately 2 seconds
- olfactory nerve response to stimulus [1]: large increases in both the firing frequency and amplitude in the olfactory nerve

Structure (SMILES): [Cl-].[Na+] [NaCl, sodium chloride]
- effect on olfactory nerve response to 500 micromolar L-alanine [1]: resulted initially in a similar response
- olfactory nerve response to stimulus [1]: produce responses in EEG activity
- concentration until which olfactory epithelium is unresponsive ([1]; in vivo): 250 millimolar
- alteration in SKCaR sensitivity to Ca2+ [2]: reduce the sensitivity of SKCaR to Ca2+
